Columns and labels:
[1] = system: Human immunodeficiency virus 1; assay: Antiviral activity against HIV-1 harboring K101P mutant infected in human MT2 cells assessed as protection against virus-induced cytopathicity by MTT assay; assay type: functional, organism-based; details: Human immunodeficiency virus 1, MT2
[2] = system: Human immunodeficiency virus 1; assay: Antiviral activity against wild type HIV-1 IIIB infected in human MT2 cells assessed as protection against virus-induced cytopathicity by MTT assay; assay type: functional, organism-based; details: Human immunodeficiency virus 1, IIIB
[3] = system: Human immunodeficiency virus 1; assay: Antiviral activity against HIV-1 harboring K103N/Y181C mutant infected in human MT2 cells assessed as protection against virus-induced cytopathicity by MTT assay; assay type: functional, organism-based; details: Human immunodeficiency virus 1, MT2
[4] = system: Human immunodeficiency virus 1; assay: Antiviral activity against HIV-1 harboring Y181C mutant infected in human MT2 cells assessed as protection against virus-induced cytopathicity by MTT assay; assay type: functional, organism-based; details: Human immunodeficiency virus 1, MT2
[5] = system: Human immunodeficiency virus 1; assay: Antiviral activity against HIV-1 harboring K103N/Y181C mutant infected in human MT2 cells assessed as protection against virus-induced cytopathicity; assay type: functional, organism-based; details: Human immunodeficiency virus 1, MT2
[6] = system: Human immunodeficiency virus 1; assay: Antiviral activity against wild type HIV-1 IIIB infected in human MT2 cells assessed as protection against virus-induced cytopathicity; assay type: functional, organism-based; details: Human immunodeficiency virus 1, IIIB
[7] = Cytotoxicity against human MT2 cells assessed as cell viability; assay type: toxicity, cell-based
[8] = system: Human immunodeficiency virus 1; assay: Antiviral activity against wild type HIV-1 IIIB infected in human MT4 cells assessed as protection against virus-induced cytopathicity by MTT assay; assay type: functional, organism-based; details: Human immunodeficiency virus 1, IIIB
[9] = Oral bioavailability in Sprague-Dawley rat at 5 mg/kg measured up to 24 hrs by LC-MS analysis; assay type: ADME, organism-based; details: in vivo
[10] = system: Human immunodeficiency virus 1; assay: Antiviral activity against HIV-1 harboring E138K mutant infected in human MT4 cells assessed as protection against virus-induced cytopathicity by MTT assay; assay type: functional, organism-based; details: Human immunodeficiency virus 1, MT4
[11] = system: Human immunodeficiency virus 1; assay: Antiviral activity against HIV-1 harboring K103N mutant infected in human MT4 cells assessed as protection against virus-induced cytopathicity by MTT assay; assay type: functional, organism-based; details: Human immunodeficiency virus 1, MT4
[12] = Cytotoxicity against human MT4 cells assessed as cell viability by MTT assay; assay type: toxicity, cell-based
[13] = Metabolic stability in human liver microsomes assessed as clearance; assay type: ADME, Microsome; details: read-out: CLH
[14] = Metabolic stability in rat liver microsomes assessed as clearance; assay type: ADME, Microsome; details: read-out: CLH
HOS = assay: Cytotoxicity against human HOS cells assessed as reduction in cell viability measured after 48 hrs; assay type: functional

SMILES: N#Cc1cc2c(Oc3ccccc3OCCn3ccc(=O)[nH]c3=O)cccn2c1
- EC50 [1]: 1 nM
- EC50 [2]: 380 nM
- EC50 [3]: 11 nM
- EC50 [4]: 310 nM

SMILES: Cc1c(Oc2ccccc2OCCn2ccc(=O)[nH]c2=O)cc(Cl)c2ccc(C#N)cc12
- EC50 [5]: 280 nM
- EC50 [6]: 6.2 nM
- CC50 [7]: > 100 µM

SMILES: Cc1c(Oc2ccccc2OCCn2ccc(=O)[nH]c2=O)cc(N(C)C(=O)CCl)c2ccc(C#N)cc12
- EC50 [5]: 570 nM
- EC50 [6]: 580 nM

SMILES: C=CC(=O)N(C)c1cc(Oc2ccccc2OCCn2ccc(=O)[nH]c2=O)c(C)c2cc(C#N)ccc12
- EC50 [5]: 500 nM
- EC50 [6]: 560 nM

SMILES: Cc1cc(/C=C/C#N)cc([N+](=O)[O-])c1Nc1nc(Nc2ccc(C#N)cc2)nc2ccccc12
- EC50 [8]: 3.4 nM
- bioavailability [9]: 16.5%
- EC50 [10]: 4.3 nM
- EC50 [11]: 3.6 nM
- CC50 [12]: 6.14 µM
- microsomal CLint [13]: 34.5 µL/min/mg
- microsomal CLint [14]: 33.2 µL/min/mg

SMILES: Cc1cc(/C=C/C#N)cc(C)c1-n1cnc2cnc(Nc3ccc(C#N)cc3)nc21
- CC50 (HOS): 42 µM

SMILES: Cc1cc(/C=C/C#N)cc([N+](=O)[O-])c1Nc1nc(Nc2ccc(C#N)cc2)nc2ccc(Cl)cc12
- EC50 [8]: 10.6 nM
- bioavailability [9]: 15.5%
- EC50 [10]: 17.7 nM
- EC50 [11]: 10.2 nM
- CC50 [12]: 3.95 µM
- microsomal CLint [13]: 14.4 µL/min/mg
- microsomal CLint [14]: 30.6 µL/min/mg

SMILES: Cc1cc(/C=C/C#N)cc(C)c1Nc1ncc2ncn(-c3ccc(C#N)cc3)c2n1
- CC50 (HOS): 21 µM

SMILES: O=C1Nc2ccc(Cl)cc2[C@@](C#CC2CC2)(C(F)(F)F)O1 [EFAVIRENZ]
- EC50 [8]: 3.2 nM
- EC50 [11]: 147 nM
- CC50 [12]: > 40.2 µM

SMILES: Cc1cc(C#N)cc(C)c1Oc1nc(Nc2ccc(C#N)cc2)nc(N)c1Br [ETRAVIRINE]
- EC50 [10]: 10.9 nM
- EC50 [11]: 3.5 nM
- CC50 [12]: > 4.62 µM

SMILES: Cc1ccnc2c1NC(=O)c1cccnc1N2C1CC1 [NEVIRAPINE]
- EC50 [3]: > 100000 nM
- EC50 [4]: > 100000 nM

SMILES: Cc1cc(/C=C/C#N)cc(C)c1Nc1ccnc(Nc2ccc(C#N)cc2)n1 [RILPIVIRINE]
- CC50 (HOS): 10 µM

— ChEMBL document CHEMBL5136999, “Contemporary Medicinal Chemistry Strategies for the Discovery and Development of Novel HIV-1 Non-nucleoside Reverse Transcriptase Inhibitors” (J Med Chem, 2022)
